Assay results reported in patent US5079241A, “Cephalosporin derivatives and pharmaceutical compositions in which they are present” (Sanofi, priority 1987, dated 1992).
Converted amounts (≈) assume the structure as drawn. Values belong to the compound of their own block, whether it stands above or below them.

Tests used:
[1] = system: Proteus vulgaris GN 76/C-1; assay: bacteriostatic action in vitro by the dilution method (MIC); type: cell-based; conditions: GN76, read-out: minimum inhibitory concentrations (MIC)
Procedure: (§1) The bacteriostatic action was determined in vitro by the dilution method. The study was carried out on both Gram-positive strains and Gram-negative strains.
(§2) The results for various products according to the invention, expressed as minimum inhibitory concentrations (MIC - μg/ml), are collated in Table 3.

[2] = system: Escherichia coli C1/Col E1::Tn3; assay: as above; type: cell-based; conditions: read-out: minimum inhibitory concentrations (MIC)
Procedure: as §1, §2

[3] = system: Escherichia coli SOL RL 90; assay: as above; type: cell-based; conditions: SOLRL90, read-out: minimum inhibitory concentrations (MIC)
Procedure: as §1, §2

[4] = system: Pseudomonas aeruginosa NCTC 8203; assay: as above; type: cell-based; conditions: NCTC8203, read-out: minimum inhibitory concentrations (MIC)
Procedure: as §1, §2

[5] = system: Providencia 155; assay: as above; type: cell-based; conditions: read-out: minimum inhibitory concentrations (MIC)
Procedure: as §1, §2

[6] = system: Klebsiella pneumoniae R30; assay: as above; type: cell-based; conditions: read-out: minimum inhibitory concentrations (MIC)
Procedure: as §1, §2

[7] = system: Staph. aureus Smith; assay: as above; type: cell-based; conditions: Staphylococcus aureus, read-out: minimum inhibitory concentrations (MIC)
Procedure: as §1, §2

[8] = pharmacokinetic behavior in baboons, 20 mg/kg (Tables 4 and 6); type: in vivo; conditions: baboon; for Cmax: read-out: Max plasma concentration; for AUC(0-t) at 6 h: trapezium method; for concentration at 6 h / concentration at 10 min / concentration at 20 min / concentration at 0.5 h / concentration at 0.75 h / concentration at 1 h / concentration at 1.5 h / concentration at 2 h / concentration at 3 h / concentration at 4 h / concentration at 5 h / concentration at 5.5 h / dose excreted at 6 h: 20 mg/kg; for concentration at 0.5 h: 30 minutes; for concentration at 0.75 h: 45 minutes; for concentration at 1 h: 60 minutes; for concentration at 1.5 h: 90 minutes; for concentration at 2 h: 120 minutes; for concentration at 3 h: 180 minutes; for concentration at 4 h: 240 minutes; for concentration at 5 h: 300 minutes; for concentration at 5.5 h: 330 minutes; for dose excreted at 6 h: urine, 6 h (Table 6), read-out: Excretion in the urine
Procedure: (§3) Furthermore, the pharmacokinetic behavior of the products according to the invention was studied in baboons after administration at a dose of 20 mg/kg by intramuscular injection or intravenous injection.
(§4) Blood samples taken at various times after administration are used to determine the plasma concentration of the product studied by microbiological assay.
(§5) It is thus possible to construct the curve showing the plasma concentration as a function of time, and to determine different pharmacokinetic parameters of the compound studied:
(§6) the elimination half-life (t1/2 β) is calculated by the formula [formula] in which β represents the elimination gradient or slope;
(§7) the area under the curve (AUC) is determined by the trapezium method.
(§8) The plasma concentrations obtained with various products of the invention are collated in Tables 4 and 5. They are expressed in μg/ml.

[9] = protein binding by comparing two standard scales in baboon plasma and phosphate buffer; type: in vitro ADME; conditions: baboon plasma vs phosphate buffer (pH 7, 0.03M)
Excerpt: Furthermore, the protein binding is obtained by comparing two standard scales, one being prepared in baboon plasma and the other in phosphate buffer (pH 7, 0.03M).

[10] = pharmacokinetic behavior in baboons, 20 mg/kg (Tables 5 and 7); type: in vivo
Procedure: as §3, §4, §5, §6, §7, §8

[11] = plasma, 20 mg/kg (Table 6), read-out: Plasma concentration at 6 h
[12] = plasma, 360 minutes, read-out: plasma concentration

SMILES: CC(C)(O/N=C(\C(=O)NC1C(=O)N2C(C(=O)O)=C(COC(=O)c3ccc(NC(=O)CN)c(O)c3)CSC12)c1csc(N)n1)C(=O)O (stereo not drawn) [SR 43753, Bis-trifluoroacetate of 7-2-(2-aminothiazol-4-yl)-2-(2-carboxyprop-2-yloxyimino)acetamido]-3-[[4-(2-aminoacetyl)amino-3-hydroxybenzoyloxymethyl]-3-cephem-4-carboxylic acid, syn isomer]
- MIC [1]: 0.12 µg/mL (≈ 0.177 µM)
- MIC [2]: 0.12 µg/mL (≈ 0.177 µM)
- MIC [3]: 2 µg/mL (≈ 2.95 µM)
- MIC [4]: 2 µg/mL (≈ 2.95 µM)
- MIC [5]: 1 µg/mL (≈ 1.48 µM)
- MIC [6]: 1 µg/mL (≈ 1.48 µM)
- MIC [7]: 2 µg/mL (≈ 2.95 µM)
- Tmax ([8]; plasma, 20 mg/kg (Table 6)): 2 h
- Cmax ([8]; plasma, 20 mg/kg (Table 6)): 151 µg/mL
- AUC(0-t) at 6 h ([8]; plasma, 20 mg/kg (Table 6)): 703 µg·h/mL
- concentration at 6 h [8, 11]: 80.9 µg/mL
- concentration at 10 min ([8]; plasma): 36.8 µg/mL
- concentration at 20 min ([8]; plasma): 69.1 µg/mL
- concentration at 0.5 h ([8]; plasma): 95.2 µg/mL
- concentration at 0.75 h ([8]; plasma): 129 µg/mL
- concentration at 1 h ([8]; plasma): 139 µg/mL
- concentration at 1.5 h ([8]; plasma): 146 µg/mL
- concentration at 2 h ([8]; plasma): 151 µg/mL
- concentration at 3 h ([8]; plasma): 126 µg/mL
- concentration at 4 h ([8]; plasma): 121 µg/mL
- concentration at 5 h ([8]; plasma): 113 µg/mL
- concentration at 5.5 h ([8]; plasma): 97.6 µg/mL
- concentration at 6 h [8, 12]: 80.9 µg/mL
- dose excreted at 6 h [8]: 18%
- fraction unbound [9]: 0.16

SMILES: CO/N=C(\C(=O)NC1C(=O)N2C(C(=O)O)=C(COC(=O)c3ccc(NC(=O)CN)c(O)c3)CSC12)c1csc(N)n1 (centres unmarked) [SR 43852]
- MIC [1]: 16 µg/mL (≈ 26.4 µM)
- MIC [2]: 0.06 µg/mL (≈ 0.0991 µM)
- MIC [3]: 0.25 µg/mL (≈ 0.413 µM)
- MIC [4]: 2 µg/mL (≈ 3.3 µM)
- MIC [5]: 2 µg/mL (≈ 3.3 µM)
- MIC [6]: 4 µg/mL (≈ 6.6 µM)
- MIC [7]: 0.25 µg/mL (≈ 0.413 µM)

- Tmax ([8]; plasma, 20 mg/kg (Table 6)): 1.5 h
- Cmax ([8]; plasma, 20 mg/kg (Table 6)): 24.1 µg/mL
- half-life ([8]; plasma, 20 mg/kg (Table 6), read-out: t1/2 β): 1.65 h
- AUC(0-t) at 6 h ([8]; plasma, 20 mg/kg (Table 6)): 87.9 µg·h/mL
- concentration at 6 h [8, 11]: 4.8 µg/mL
- concentration at 10 min ([8]; plasma): 8.5 µg/mL
- concentration at 20 min ([8]; plasma): 16.4 µg/mL
- concentration at 0.5 h ([8]; plasma): 16.9 µg/mL
- concentration at 0.75 h ([8]; plasma): 17.6 µg/mL
- concentration at 1 h ([8]; plasma): 20.7 µg/mL
- concentration at 1.5 h ([8]; plasma): 24.1 µg/mL
- concentration at 2 h ([8]; plasma): 20.7 µg/mL
- concentration at 3 h ([8]; plasma): 17.6 µg/mL
- concentration at 4 h ([8]; plasma): 12.5 µg/mL
- concentration at 5 h ([8]; plasma): 8.3 µg/mL
- concentration at 5.5 h ([8]; plasma): 6.8 µg/mL
- concentration at 6 h [8, 12]: 4.8 µg/mL
- dose excreted at 6 h [8]: 18%
- fraction unbound [9]: 0.52
SMILES: CC(C)(ON=C(C(=O)NC1C(=O)N2C(C(=O)O)=C(COC(=O)c3ccc(NC(=O)CCN)cc3)CSC12)c1csc(N)n1)C(=O)O (centres unmarked) [Product B, reference compound]

SMILES: CO/N=C(\C(=O)NC1C(=O)N2C(C(=O)O)=C(COC(=O)c3ccc(NC(=O)C(N)CCN)c(O)c3)CSC12)c1csc(N)n1 (centres unmarked) [SR 44218]
- MIC [1]: 16 µg/mL (≈ 24.7 µM)
- MIC [2]: 0.25 µg/mL (≈ 0.385 µM)
- MIC [3]: 0.5 µg/mL (≈ 0.771 µM)
- MIC [4]: 4 µg/mL (≈ 6.17 µM)
- MIC [5]: 2 µg/mL (≈ 3.08 µM)
- MIC [6]: 8 µg/mL (≈ 12.3 µM)
- MIC [7]: 0.5 µg/mL (≈ 0.771 µM)

SMILES: CO/N=C(\C(=O)NC1C(=O)N2C(C(=O)O)=C(COC(=O)c3ccc(NS(=O)(=O)CCN)c(O)c3)CSC12)c1csc(N)n1 (stereo not drawn) [SR 44337, 7-[2-(2-Aminothiazol-4-yl)-2-methoxyiminoacetamido]-3-[[4-(2-aminoethylsulfonamido)-3-hydroxybenzoyl]oxymethyl]-3-cephem-4-carboxylic acid bis-trifluoroacetate, syn isomer]
- increase in area under the curve relative to reference product C [10]: 2.7 fold
- Plasma concentration at 24 h ([10]; 20 mg/kg (Table 7)): 39.0 µg/mL
- Plasma concentration at 48 h ([10]; 20 mg/kg (Table 7)): 14.4 µg/mL
- plasma concentration at 24 hours, times higher than reference product C ([10]; 24 hours): 5 times
- plasma concentration at 48 hours, times higher than reference product C ([10]; 48 hours): 24 times
- Cmax ([10]; baboon, plasma, 20 mg/kg (Table 7), read-out: Maximum plasma concentration): 266 µg/mL
- half-life ([10]; baboon, plasma, 20 mg/kg (Table 7), read-out: t1/2 β (converted)): 13.9 h
- AUC(0-inf) ([10]; baboon, plasma, 20 mg/kg (Table 7), trapezium method, read-out: AUC 0-.infin.): 3320 µg·h/mL
- concentration at 0.08 h ([10]; baboon, plasma, 20 mg/kg, 0.08 hours): 266 µg/mL
- concentration at 0.16 h ([10]; baboon, plasma, 20 mg/kg, 0.16 hours): 251 µg/mL
- concentration at 0.25 h ([10]; baboon, plasma, 20 mg/kg, 0.25 hours): 238 µg/mL
- concentration at 0.33 h ([10]; baboon, plasma, 20 mg/kg, 0.33 hours): 206 µg/mL
- concentration at 0.5 h ([10]; baboon, plasma, 20 mg/kg, 0.5 hours): 194 µg/mL
- concentration at 0.75 h ([10]; baboon, plasma, 20 mg/kg, 0.75 hours): 190 µg/mL
- concentration at 1 h ([10]; baboon, plasma, 20 mg/kg, 1 hours): 182 µg/mL
- concentration at 1.5 h ([10]; baboon, plasma, 20 mg/kg, 1.5 hours): 164 µg/mL
- concentration at 2 h ([10]; baboon, plasma, 20 mg/kg, 2 hours): 153 µg/mL
- concentration at 3 h ([10]; baboon, plasma, 20 mg/kg, 3 hours): 152 µg/mL
- concentration at 4 h ([10]; baboon, plasma, 20 mg/kg, 4 hours): 147 µg/mL
- concentration at 5 h ([10]; baboon, plasma, 20 mg/kg, 5 hours): 141 µg/mL
- concentration at 6 h ([10]; baboon, plasma, 20 mg/kg, 6 hours): 120 µg/mL
- concentration at 24 h ([10]; baboon, plasma, 20 mg/kg, 24 hours): 39 µg/mL
- concentration at 48 h ([10]; baboon, plasma, 20 mg/kg, 48 hours): 14.4 µg/mL
- dose excreted at 6 h ([10]; baboon, urine, 20 mg/kg (Table 7), read-out: Excretion in urine at 6 h): 14%
- MIC [1]: 1 µg/mL (≈ 1.53 µM)
- MIC [2]: 0.06 µg/mL (≈ 0.0915 µM)
- MIC [3]: 0.5 µg/mL (≈ 0.763 µM)
- MIC [4]: 2 µg/mL (≈ 3.05 µM)
- MIC [5]: 1 µg/mL (≈ 1.53 µM)
- MIC [6]: 4 µg/mL (≈ 6.1 µM)
- MIC [7]: 0.25 µg/mL (≈ 0.381 µM)
